# According to patent US20060173031A1, “Therapeutic agent for schizophrenia” (MITSUBISHI PHARMA CORPORATION, priority 2003, published 2006):
# System: Phencyclidine (PCP)-induced passive avoidance reaction disorder
# Assay: Phencyclidine (PCP)-induced passive avoidance reaction disorder in rats
# Format: in vivo, Wistar male rats
# Details: 10 mg/kg oral, 30 min before PCP 2 mg/kg i.p.; test trial 24 hr after acquisition trial; max 300 seconds; versus vehicle group
structure (smiles),measurement,value
"Cc1oc2nc3c(c(NC(=O)CN4CCCC4=O)c2c1C)CCCC3 [compound A, 2-(2-oxopyrrolidin-1-yl)-N-(2,3-dimethyl-5,6,7,8-tetrahydrofuro[2,3-b]quinolin-4-yl)acetamide]",latent time of test trial (passive avoidance reaction),significantly prolonged the latent time shortened by the PCP administration
